Laboratory results as given in patent publication US5498632A, “Esters of acyl carnitines with long-chain aliphatic alcohols and pharmaceutical compositions containing same having antibacterial activity” (Sigma-Tau Industrie Farmaceutiche Riunite S.p.A., priority 1992, dated 1996).

Assays:
Assay type in all cases: cell-based
[1] = test system: Bacillus pumilus (CN 607); assay: MIC in broth, Gram+ strains; conditions: B. pumilus (CN 607), Mueller-Hinton broth, 37° C., 18 hours, read-out: Minimal Inhibitory Concentration (MIC)
Method: (§1) Evaluation of the Minimal Inhibitory Concentration (MIC) in broth of 15 new substances for Gram+ bacterial strains.
(§2) The following strains were used: Staphylococcus aureus (4); Streptococcus faecalis (8); Bacillus pumilus (1); Bacillus subtilis (1).
(§3) MICs were determined by a standard microdilution test, using serial two-fold dilutions of the substances in Mueller-Hinton broth.
(§4) The inoculum was prepared from an overnight culture in Mueller-Hinton broth matching the 0.5 Mc Farland (turbidity) standard (BRAY W. E., Clinical Laboratory Methods, 5th Ed. C. V. MOSBY, St. Louis, Mo. 1957), and was adjusted to a final concentration of 5.0×10^4 colony-forming units/ml.
(§5) Equal volumes (0.1 ml) of both bacterial suspensions and substance solutions were distributed in microtiter plates (Falcon, 96 wells, round bottom), and then placed in a humidified incubator (37° C.) for 18 hours.
(§6) The results, in terms of MIC values, resistant strain number and mean MIC values versus susceptible strains, are illustrated in Tables 1-6.

[2] = test system: Bacillus subtilis (ATCC 6051); assay: MIC in broth, Gram+ strains; conditions: ATCC6051, B. subtilis (ATCC 6051), Mueller-Hinton broth, 37° C., 18 hours, read-out: Minimal Inhibitory Concentration (MIC)
Method: as §1, §2, §3, §4, §5, §6

[3] = test system: Staphylococcus aureus (303); assay: MIC in broth, Gram+ strains; conditions: S. aureus (303), Mueller-Hinton broth, 37° C., 18 hours, read-out: Minimal Inhibitory Concentration (MIC)
Method: as §1, §2, §3, §4, §5, §6

[4] = test system: Staphylococcus aureus (ATCC 14154); assay: MIC in broth, Gram+ strains; conditions: ATCC14154, S. aureus (ATCC 14154), Mueller-Hinton broth, 37° C., 18 hours, read-out: Minimal Inhibitory Concentration (MIC)
Method: as §1, §2, §3, §4, §5, §6

[5] = test system: Staphylococcus aureus (LC1); assay: MIC in broth, Gram+ strains; conditions: S. aureus (LC1), Mueller-Hinton broth, 37° C., 18 hours, read-out: Minimal Inhibitory Concentration (MIC)
Method: as §1, §2, §3, §4, §5, §6

[6] = test system: Streptococcus faecalis (501); assay: MIC in broth, Gram+ strains; conditions: Enterococcus faecalis; S. faecalis (501), Mueller-Hinton broth, 37° C., 18 hours; read-out: Minimal Inhibitory Concentration (MIC)
Method: as §1, §2, §3, §4, §5, §6

[7] = test system: Streptococcus faecalis (505); assay: MIC in broth, Gram+ strains; conditions: Enterococcus faecalis; S. faecalis (505), Mueller-Hinton broth, 37° C., 18 hours; read-out: Minimal Inhibitory Concentration (MIC)
Method: as §1, §2, §3, §4, §5, §6

[8] = test system: Streptococcus faecalis (509); assay: MIC in broth, Gram+ strains; conditions: Enterococcus faecalis; S. faecalis (509), Mueller-Hinton broth, 37° C., 18 hours; read-out: Minimal Inhibitory Concentration (MIC)
Method: as §1, §2, §3, §4, §5, §6

[9] = test system: Streptococcus faecalis (516); assay: MIC in broth, Gram+ strains; conditions: Enterococcus faecalis; S. faecalis (516), Mueller-Hinton broth, 37° C., 18 hours; read-out: Minimal Inhibitory Concentration (MIC)
Method: as §1, §2, §3, §4, §5, §6

[10] = test system: Streptococcus faecalis (518); assay: MIC in broth, Gram+ strains; conditions: Enterococcus faecalis; S. faecalis (518), Mueller-Hinton broth, 37° C., 18 hours; read-out: Minimal Inhibitory Concentration (MIC)
Method: as §1, §2, §3, §4, §5, §6

[11] = test system: Streptococcus faecalis (519); assay: MIC in broth, Gram+ strains; conditions: Enterococcus faecalis; S. faecalis (519), Mueller-Hinton broth, 37° C., 18 hours; read-out: Minimal Inhibitory Concentration (MIC)
Method: as §1, §2, §3, §4, §5, §6

[12] = test system: Streptococcus faecalis (R 2); assay: MIC in broth, Gram+ strains; conditions: Enterococcus faecalis; S. faecalis (R 2), Mueller-Hinton broth, 37° C., 18 hours; read-out: Minimal Inhibitory Concentration (MIC)
Method: as §1, §2, §3, §4, §5, §6

[13] = test system: Streptococcus faecalis (UM); assay: MIC in broth, Gram+ strains; conditions: Enterococcus faecalis; S. faecalis (UM), Mueller-Hinton broth, 37° C., 18 hours; read-out: Minimal Inhibitory Concentration (MIC)
Method: as §1, §2, §3, §4, §5, §6

[14] = test system: Gram+ bacterial strains; assay: Mean MIC in broth and resistant strain number, Gram+ strains; conditions: 18 h, versus susceptible strains
Method: as §1, §2, §3, §4, §5, §6

[15] = test system: Enterobacter aerogenes (UM); assay: MIC in broth, Gram- strains; conditions: Klebsiella aerogenes, 18 h, read-out: Minimal Inhibitory Concentration (MIC)
Method: as §3, §4, §5
(§7) Evaluation of the Minimal Inhibitory Concentration (MIC) in broth of 16 new substances for Gram- bacterial strains.
(§8) The following strains were used: Enterobacter (1), Escherichia (3), Klebsiella (3), Proteus (3); Pseudomonas (2); Salmonella (2), Serratia (1).

[16] = test system: Escherichia coli (92 F); assay: MIC in broth, Gram- strains; conditions: 18 h, E. coli (92 F), read-out: Minimal Inhibitory Concentration (MIC)
Method: as §3, §4, §5, §7, §8

[17] = test system: Escherichia coli (R 57B); assay: MIC in broth, Gram- strains; conditions: 18 h, E. coli (R 57B), read-out: Minimal Inhibitory Concentration (MIC)
Method: as §3, §4, §5, §7, §8

[18] = test system: Klebsiella aerogenes (SH 1082); assay: MIC in broth, Gram- strains; conditions: 18 h, read-out: Minimal Inhibitory Concentration (MIC)
Method: as §3, §4, §5, §7, §8

[19] = test system: Klebsiella oxytoca (552); assay: MIC in broth, Gram- strains; conditions: 18 h, read-out: Minimal Inhibitory Concentration (MIC)
Method: as §3, §4, §5, §7, §8

[20] = test system: Klebsiella pneumoniae (7823); assay: MIC in broth, Gram- strains; conditions: 18 h, read-out: Minimal Inhibitory Concentration (MIC)
Method: as §3, §4, §5, §7, §8

[21] = test system: Proteus mirabilis (32); assay: MIC in broth, Gram- strains; conditions: 18 h, read-out: Minimal Inhibitory Concentration (MIC)
Method: as §3, §4, §5, §7, §8

[22] = test system: Proteus morganii (D.S.); assay: MIC in broth, Gram- strains; conditions: Morganella morganii, 18 h, read-out: Minimal Inhibitory Concentration (MIC)
Method: as §3, §4, §5, §7, §8

[23] = test system: Proteus vulgaris (UM); assay: MIC in broth, Gram- strains; conditions: 18 h, read-out: Minimal Inhibitory Concentration (MIC)
Method: as §3, §4, §5, §7, §8

[24] = test system: Pseudomonas aeruginosa (10 E); assay: MIC in broth, Gram- strains; conditions: 18 h, read-out: Minimal Inhibitory Concentration (MIC)
Method: as §3, §4, §5, §7, §8

[25] = test system: Pseudomonas aeruginosa (3 E); assay: MIC in broth, Gram- strains; conditions: 18 h, read-out: Minimal Inhibitory Concentration (MIC)
Method: as §3, §4, §5, §7, §8

[26] = test system: Salmonella typhi (J); assay: MIC in broth, Gram- strains; conditions: Salmonella enterica, 18 h, read-out: Minimal Inhibitory Concentration (MIC)
Method: as §3, §4, §5, §7, §8

[27] = test system: Salmonella typhimurium (D.S.); assay: MIC in broth, Gram- strains; conditions: Salmonella enterica, 18 h, read-out: Minimal Inhibitory Concentration (MIC)
Method: as §3, §4, §5, §7, §8

[28] = test system: Gram- bacterial strains; assay: Mean MIC in broth and resistant strain number, Gram- strains; conditions: 18 h, read-out: Mean MIC values
Method: as §3, §4, §5, §7, §8

[29] = test system: Helicobacter pylori NCTC 11637; assay: In vitro synergistic effect of ST 722 and Bismuth Subcitrate
Method: CBS from the commercially available product De-Nol® (Gist-Brocades, Netherland), i.e. ammonium and potassium double salt of colloidal bismuth citrate hydroxide, was utilized by preparing a suspension of 10 mg/ml CBS in 1N NaOH. After diluting 1:10 in Mueller-Hinton broth, 8 serial two-fold dlitutions in the same medium were made. The compound ST 722 was dissolved in Mueller-Hinton broth at a starting concentration of 100 mcg/ml, then 7 serial two-fold dilutions were carried out.
The "in vitro" anti-Helicobacter activity of both CBS and ST 722, alone and in association, was tested by utilizing the strain H. pylori NCTC 11637.
A 24-hour culture of Helicobacter in Columbia agar medium supplemented with Vitox (Oxoid) and 7% defribinated horse blood is washed with Mueller-Hinton broth.
Following densitometric evaluation (reading at 600 nm), the bacterial suspension was adjusted to a concentration of 1.0×10^9 cells/ml and 0.2-ml volumes were distributed into each well of a 96-well U-bottomed microtiter plate.
A 1-μl volume of this bacterial suspension was then distributed, by means of a Steers-type replicator apparatus, into the wells of microtiter plates containing the substances, either alone or in association. The final bacterial inoculum contained approximately 1.0×10^6 bacterial cells.
The procedure described by Garrod et al. (GARROD, L. P. and WATERWORTH, P. M., 1962. Methods of testing combined antibiotic bactericidal action and the significance of the results. J. Clin. Pathol. 15, 328-338) was utilized.
Briefly, 250-μl volumes of each test substance, either alone or admixed in all the possible combinations, were additioned to 4.5 ml of Mueller-Hinton agar containing 5% defribinated horse serum. Volumes of 0.2 ml/well of the resulting solution were distributed into the wells of a microtiter plate, then seeded with 1 μl/well of a standardized bacterial suspension, and finally incubated for 48 hours at 37° C. in a 10% CO2 atmosphere.
In order to evaluate the results obtained with combinations of antibiotics it was utilized the method (KROGSTAD, D. J. and MOELLERING, R. C., 1983. Antimicrobial combinations. In LORIAN, V., Antibiotics in Laboratory Medicine, 15, 537-549) based on the calculation of the Fractional Inhibitory Concentration Index (FIC index).
FIC index is calculated as follows: [formula] Where (A) is the MIC of substance A in the association and (MICA) is the […] of the organism to substance A alone. FICA is the fractional inhibitory concentration of substance A. (B), (MICB) and FICB are defined in the same fashion for substance B.
Based on these criteria, the effect of a combination of 2 substances is referred to as 'synergistic" when the FIC index is ≤0.5, "additive" with a FIC index=1, and "antagonist" when FIC index is >1.

Work on `CCCCCCCCCCCCOC(=O)CC(C[N+](C)(C)C)OC(=O)C(C)C` (stereo not drawn) [ST 1038] yielded an MIC [1] of 3.12 µg/mL, an MIC [2] of 6.25 µg/mL and an MIC [3] of 6.25 µg/mL. It also gave an MIC [4] of 3.12 µg/mL, an MIC [5] of 1.56 µg/mL and an MIC [6] of 3.12 µg/mL. The MIC [7] was 3.12 µg/mL, the MIC [8] was 3.12 µg/mL and the MIC [9] was 3.12 µg/mL. It also gave an MIC [10] of 3.12 µg/mL, an MIC [11] of 3.12 µg/mL and an MIC [12] of 3.12 µg/mL. For the same compound, the MIC [13] was 3.12 µg/mL, the MIC [14] was 3.48 µg/mL and the MIC [15] was 25 µg/mL. The MIC [16] was 25 µg/mL, the MIC [17] was 100 µg/mL and the MIC [18] was 50 µg/mL. It also gave an MIC [19] of 25 µg/mL, an MIC [20] of 25 µg/mL and an MIC [21] greater than 100 µg/mL. The MIC [22] was 100 µg/mL, the MIC [23] was 100 µg/mL and the MIC [24] was 100 µg/mL. It also gave an MIC [25] of 100 µg/mL, an MIC [26] of 25 µg/mL and an MIC [27] of 25 µg/mL. For the same compound, the MIC [28] was 41.7 µg/mL.
“Colloidal Bismuth Subcitrate [CBS, reference compound]” was tested, and the “FIC (fractional inhibitory concentration)” value ([29]; ST 722 with CBS) was 0.50 and the MIC ([29]; substance alone, H. pylori NCTC 11637, 48 hours) was 6.25 µg/mL.
